Experimental data from PMC8234864, “Early Effects of the Soluble Amyloid β25-35 Peptide in Rat Cortical Neurons: Modulation of Signal Transduction Mediated by Adenosine and Group I Metabotropic Glutamate Receptors” (International Journal of Molecular Sciences, 2021).
Entries after “also recorded” stand apart in the source; their conditions may differ.

Tests used:
[1] = system: rat cortical neurons exposed to Aβ25-35; test: Effect of receptor ligands on Aβ25-35 induced toxicity (MTT); assay type: cell-based; conditions: ligand 100 µM added 30 min before Aβ25-35 (25 µM, 24 h)
Experimental: (§1) Aβ25-35 and Aβ1-42 were water-soluble peptides, however, while Aβ25-35, the functional domain of Aβ required for both neurotrophic and neurotoxic effects, was directly added to neuronal cultures after its solubilisation, Aβ1-42 was solved in water and maintained for 24 h at 37 °C before its addition to promote its aggregation. To test the effect of mGluR ligands on cell death induced by Aβ in neuronal cultures, these drugs were added 30 min before the addition of Aβ25-35 and maintained during Aβ exposure. Unless otherwise indicated, all chemicals were dissolved in water.
(§2) Cell viability was determined on 96-well plates using an in vitro toxicology assay kit based on a mitochondrial-dependent reaction that transforms 3-[4,5-dimetylthiazol-2-yl]-2,5-diphenyltetrazolium bromide (MTT) into formazan crystals. Briefly, at the end of treatments, cells were incubated in culture medium with MTT solution (5 mg/mL) at 37 °C for 3 h. After incubation, MTT solubilization solution (10% Triton X-100 plus 0.1 M HCl in isopropanol anhydrous) was added into the wells to dissolve formazan crystals and the absorbance of each well was measured at 570 nm and 690 nm, according to the manufacturer’s instructions.

[2] = system: Group I mGluR/PLC signalling pathway; test: Phospholipase C activity (IP3 accumulation), basal and DHPG-stimulated; assay type: cell-based, rat; conditions: added 10 min before DHPG, control cells
Experimental: This method was previously reported and is divided into two well-defined steps: IP3 accumulation: culture medium was discharged, and cells were washed twice with DMEM containing 20 mM HEPES, pH 7.4. After 20 min at 37 °C, different ligands were added to cells for 10 min at 37 °C to analyse their effect on PLC activity in a final reaction volume of 300 μL. The enzymatic reaction was stopped and cells lysed by adding 50 μL 2.8 M perchloric acid and placing plates on ice for 30 min. The medium was neutralized with 70 μ[…] Tris-HCl, 2 M KOH, and 60 mM EGTA, transferred to Eppendorf tubes and centrifuged at 12,000× g for 10 min. The supernatant was then collected to determine the IP3 level. IP3 level determination: IP3 levels in cells were determined as previously reported by Palmer and modified by […] [100]. Incubation of [^3H]IP3 (0.2 pmol; 3000-5000 cpm) in assay buffer (100 mM Tris-HCl, 4 mM EDTA, 4 mM EGTA, 4 mg/mL BSA, pH 9.0), binding protein (500-600 μg), and 25-50 μL of supernatant obtained from IP3 accumulation assay was carried out. Samples were incubated at 4 °C for 60 min and centrifuged at 12,000× g for 10 min. Pellets were suspended in 100 μL 0.2% SDS and transferred to scintillation vials to measure radioactivity. A standard curve was made with known [^3H]IP3 concentrations (0.25-10 μM). Nonspecific binding was determined in the presence of 10 μM unlabeled IP3. Binding protein was obtained from bovine suprarenal capsules according to Palmer's protocol.

[3] = system: rat cortical neurons; test: MTT reduction cell viability assay after Aβ exposure; assay type: cell-based; conditions: 25 µM, 24 h, MTT, positive control
Experimental: as §1, §2

Molecule: OC[C@H]1O[C@@H](n2cnc3c(NC4CCCC4)ncnc32)[C@H](O)[C@@H]1O [CPA, N^6-cyclopentyladenosine]
- effect on Aβ25-35 induced toxicity [1]: no significant effect

Molecule: Cc1cccc(C#Cc2ccccc2)n1.Cl [MPEP, 2-Methyl-6-(phenylethynyl)pyridine hydrochloride]
- effect on DHPG-elicited PLC stimulation ([2]; 1 µM): blocked DHPG-elicited PLC stimulation

Molecule: Nc1nc(NCCc2ccc(O)cc2)nc2nc(-c3ccco3)nn12 [ZM241385, 4-(2-[7-Amino-2-(2-furyl) [1,2,4]triazolo [2,3-a] [1,3,5]triazin-5-ylamino]ethyl)phenol]
- effect on Aβ25-35 induced toxicity [1]: no significant effect

Molecule: N[C@H](C(=O)O)c1cc(O)cc(O)c1 [DHPG, (S)-3,5-dihydroxyphenylglycine]
- effect on Aβ25-35 induced toxicity [1]: no significant effect

Molecule: CCNC(=O)[C@H]1O[C@@H](n2cnc3c(N)nc(NCCc4ccc(CCC(=O)O)cc4)nc32)[C@H](O)[C@@H]1O [CGS21680, 2-[p-(2-carboxyethyl)phenylamino]-50-N-ethylcarboxyamide adenosine]
- effect on Aβ25-35 induced toxicity [1]: no significant effect

Molecule: Aβ1-42: whole amyloid β peptide, kept 24 h at 37 °C to promote aggregation; positive control
- cell viability [3]: decrease in cell viability

Molecule: CCCn1c(=O)c2[nH]c(C3CCCC3)nc2n(CCC)c1=O [DPCPX, 8-Cyclopentyl-1,3-dipropylxanthine]
- effect on Aβ25-35 induced toxicity [1]: no significant effect; also recorded: ineffective

Molecule: CO[C@H]1CC[C@@H](C(=O)c2ccc3nc4c(cc3c2)CCCO4)CC1 [JNJ 16259685, (3,4-Dihydro-2H-pyrano[2,3-b]quinolin-7-yl)-(cis-4-methoxycyclohexyl)-methanone]
- effect on DHPG-elicited PLC stimulation ([2]; 0.5 µM): blocked DHPG-elicited PLC stimulation
